Measurements taken from US20060172943A1, “Restoring vascular function” (priority 2003, published 2006).
Ends that are not written are not given here.

How the values were obtained:
[1] = test system: tenascin-C mRNA expression in cultured rat cardiac endothelial cells; test: PCR analysis of tenascin-C mRNA expression in cultured cardiac endothelial cells treated with PDGF; assay type: cell-based; conditions: data not shown
Method: Tenascin-C expression was induced by PDGF during in vitro studies in rat aortic smooth muscle cells. […] Control cells received no PDGF. Cardiac endothelial cells from young (4-month old) and old (24-month old) rat hearts were tested. The number of treated and non-treated cultures tested was two (n=2 per group). Tenascin-C expression was higher in PDGF-treated cells and in younger (4 month old) as opposed to older ([…]) cultures of rat cardiac endothelial cells.

[2] = test system: tenascin-C expression in the heart; test: Immunohistochemical analysis of heart sections after intramyocardial PDGF injection; assay type: in vivo, rat; conditions: rats, 24 h, immunohistochemistry, data not shown
Method: Cardiac injections of PDGF ligand were performed as described in Xaymardan et al., Senescent impairment in synergistic cytokine pathways that provide rapid cardioprotection in the rat heart. J Exp Med, 199(6): p. 797-804 (2004). Briefly, rats were anesthetized, an intercostal thoracotomy was performed and then the rats received intramyocardial injections of PDGF-AB (100 ng/50 μl PBS) at the anterior wall of the myocardium (two 25 μl injections, 2 mm apart) through a 28 gauge needle. The chest wall was closed, the lungs inflated and the rats were extubated. Twenty-four hours later, the rats were sacrificed and the hearts were harvested for paraffin embedding and sectioning, using standard techniques.
(§1) The following primary antibodies were used for immunostaining histological sections: anti-tenascin-C (Santa Cruz Biotechnology, California), anti-pIII (Mobitec, Germany), anti-β-galactosidase (Biogenesis, U.K.), anti-PDGFRα (Santa Cruz Biotechnology). For consistency, sections for all analyses were selected from the mid-papillary region of the ventricles. Primary antibodies were labeled with biotin and visualized with Texas Red- and FITC-conjugated avidin (Vector Labs, California).

[3] = test system: rat cardiac microvascular endothelial cells; test: In vitro cell adhesion and spreading analysis on coated substrates; assay type: cell-based; conditions: for cells that failed to attach to the substrate: within 10 min of plating
Method: (§2) Rat cardiac microvascular endothelial cells were isolated from 3-month-old rats according to the method of Nishida et al. (1995). Cells were cultured on either collagen-coated or tenascin-C-coated (10 μg/ml) 8-well chamber slides (Nunc Nalge International, Illinois.) in minimal media (5% fetal bovine serum, 1% penicillin, 1% streptomycin in Dulbecco's modified Eagle's medium) for up to 48 hours and photographed daily. […] For migration analysis, cells were covered with 300 μl of collagen gel (Chemicon, California) after 3 h of culture on 10 μg/ml collagen or tenascin-C. The gel was allowed to polymerize for 1 hour at 37° C. and 200 μl of minimal media containing VEGF or PDGF (5 ng/ml) or no growth factor was added to the wells. Cells were incubated for up to 48 h, and analyzed for peak migration rates using an inverted microscope (Nikon, Japan): migratory distance of the 5 cells that had migrated furthest through the Z-axis of the gel was determined using the Z-plane focus knob of the microscope. Each experiment was repeated 4 times.
The role of tenascin-C in the regulation of cardiac angiogenesis, endothelial cell phenotype and behavior was further analyzed by observing whether tenascin-C influenced cell adhesion. Cardiac endothelial cells were isolated from young hearts and cultured on either tenascin-C or collagen at a concentration of 10 μg/ml. […] Thus, it appeared that tenascin-C has a short-term anti-adhesive effect on cardiac endothelial cells. […] After 3 h of culture, 99% of cells were attached to the collagen substrate, while approximately 10% of cells on tenascin-C still fail to adhere in this time. Thus, tenascin-C can mediate endothelial cell attachment but, at least within the first few hours of endothelial cell binding to tenascin-C, this attachment is weak and cells maintain a rounded phenotype.
The time period and substrate concentration effects upon cell attachment were further examined by plating rat microvascular endothelial cells on various concentrations (1 μg/ml, 10 μg/ml and 100 μg/ml) of collagen and tenascin-C and observing the attachment of cells to these substrates. As shown in FIGS. 6A-C, within 3 hr, cells on collagen were well attached and beginning to spread into a monolayer. In contrast, cells plated on tenascin-C for 3 hr remained rounded, especially when higher concentrations of tenascin-C were used (FIGS. 6D-F).

[4] = test system: rat cardiac microvascular endothelial cells; test: Three-dimensional migration assay through collagen gel; assay type: cell-based; conditions: cells cultured 3 h on substrate 10 μg/ml, 48 hours; for increase of peak migration distance in response to PDGF compared to absence of growth factors: PDGF 5 ng/ml; for increase of peak migration distance in response to VEGF compared to absence of growth factors: VEGF 5 ng/ml
Method: as §2
A three-dimensional assay system was developed in which cardiac endothelial cells were cultured on either collagen or tenascin-C for 3 h, and then migration through a collagen gel was analyzed in response to PDGF, VEGF, or the absence of angiogenic growth factors (FIGS. 8A, B). After 48 hours, peak migration distances through the Z-axis of the gel were determined (FIG. 8C).

[5] = test system: cardiac vasculature of young (3-month-old) and old (18-month-old) murine hearts; test: In vivo phage binding in heart after tail vein injection, quantified by phage titering; conditions: individual tail vein injection; 3-month-old vs 18-month-old mice; titers of phage eluted from hearts
Method: To identify young-specific bone marrow-homing phage, a phage library encoding a cyclically constrained seven amino acid variable region (New England Biolabs, Massachusetts) was injected into young (3 month) and old (18-month) adult mice, using methods described in Cai, D., et al., Age-associated impairment in TNF-alpha cardioprotection from myocardial infarction. Am J Physiol Heart Circ Physiol, 2003. 285(2): p. H463-69. Phage clones were selected for sequencing from phage pools eluted from young rather than old bone marrow. To confirm that these clones preferentially bound to young bone marrow, the clones were injected individually into young and old mice and young bone marrow-specific clones were re-selected from the young mouse's bone marrow. Young bone marrow-homing phage were then analyzed for cardiac binding to identify phage epitopes that preferentially bound to young cardiac vasculature as well as young bone marrow. The number of bound phage recovered per mg of tissue was quantified by serial dilution titration. The age-associated differential cardiac binding capacity of a candidate phage clone, ψR3Y32 was confirmed using methods described in Cai et al. (2004).
Individual injection of ψR3Y32 confirmed 10-fold higher levels of ψR3Y32 binding in young compared to old murine hearts (FIG. 3A).

[6] = target: T1, tenascin-C in the cardiac vasculature (Mus musculus, UniProt Q80YX1); test: Immunostaining of heart sections for phage coat protein pIII and tenascin-C; assay type: in vivo; conditions: rodent heart after phage injection
T1 construct: from tissue; host or cells: heart (cardiac vasculature) of phage-injected animals, paraffin sections
Description: For immunohistochemical analysis of phage binding, hearts were harvested after phage injection, and then prepared for paraffin embedding and sectioning using standard histochemical procedures.
as §1
To investigate whether tenascin is an in vivo receptor for ψR3Y32, expression of tenascin-C as well as its relationship to phage binding sites was analyzed in the rodent heart. […] Co-staining for tenascin-C and the nuclear marker 4,6-diamidino-2-phenylindole (DAPI) further confirmed that tenascin-C is expressed on the luminal surface of cardiac vessels, and therefore may act at sites of endothelial cell/EPC cell incorporation during vascular remodeling (FIG. 3D).

[7] = 3 hours of incubation, substrate 10 μg/ml
[8] = after 3 h of culture, substrate 10 μg/ml

T1 sequence (Q80YX1 23-2110): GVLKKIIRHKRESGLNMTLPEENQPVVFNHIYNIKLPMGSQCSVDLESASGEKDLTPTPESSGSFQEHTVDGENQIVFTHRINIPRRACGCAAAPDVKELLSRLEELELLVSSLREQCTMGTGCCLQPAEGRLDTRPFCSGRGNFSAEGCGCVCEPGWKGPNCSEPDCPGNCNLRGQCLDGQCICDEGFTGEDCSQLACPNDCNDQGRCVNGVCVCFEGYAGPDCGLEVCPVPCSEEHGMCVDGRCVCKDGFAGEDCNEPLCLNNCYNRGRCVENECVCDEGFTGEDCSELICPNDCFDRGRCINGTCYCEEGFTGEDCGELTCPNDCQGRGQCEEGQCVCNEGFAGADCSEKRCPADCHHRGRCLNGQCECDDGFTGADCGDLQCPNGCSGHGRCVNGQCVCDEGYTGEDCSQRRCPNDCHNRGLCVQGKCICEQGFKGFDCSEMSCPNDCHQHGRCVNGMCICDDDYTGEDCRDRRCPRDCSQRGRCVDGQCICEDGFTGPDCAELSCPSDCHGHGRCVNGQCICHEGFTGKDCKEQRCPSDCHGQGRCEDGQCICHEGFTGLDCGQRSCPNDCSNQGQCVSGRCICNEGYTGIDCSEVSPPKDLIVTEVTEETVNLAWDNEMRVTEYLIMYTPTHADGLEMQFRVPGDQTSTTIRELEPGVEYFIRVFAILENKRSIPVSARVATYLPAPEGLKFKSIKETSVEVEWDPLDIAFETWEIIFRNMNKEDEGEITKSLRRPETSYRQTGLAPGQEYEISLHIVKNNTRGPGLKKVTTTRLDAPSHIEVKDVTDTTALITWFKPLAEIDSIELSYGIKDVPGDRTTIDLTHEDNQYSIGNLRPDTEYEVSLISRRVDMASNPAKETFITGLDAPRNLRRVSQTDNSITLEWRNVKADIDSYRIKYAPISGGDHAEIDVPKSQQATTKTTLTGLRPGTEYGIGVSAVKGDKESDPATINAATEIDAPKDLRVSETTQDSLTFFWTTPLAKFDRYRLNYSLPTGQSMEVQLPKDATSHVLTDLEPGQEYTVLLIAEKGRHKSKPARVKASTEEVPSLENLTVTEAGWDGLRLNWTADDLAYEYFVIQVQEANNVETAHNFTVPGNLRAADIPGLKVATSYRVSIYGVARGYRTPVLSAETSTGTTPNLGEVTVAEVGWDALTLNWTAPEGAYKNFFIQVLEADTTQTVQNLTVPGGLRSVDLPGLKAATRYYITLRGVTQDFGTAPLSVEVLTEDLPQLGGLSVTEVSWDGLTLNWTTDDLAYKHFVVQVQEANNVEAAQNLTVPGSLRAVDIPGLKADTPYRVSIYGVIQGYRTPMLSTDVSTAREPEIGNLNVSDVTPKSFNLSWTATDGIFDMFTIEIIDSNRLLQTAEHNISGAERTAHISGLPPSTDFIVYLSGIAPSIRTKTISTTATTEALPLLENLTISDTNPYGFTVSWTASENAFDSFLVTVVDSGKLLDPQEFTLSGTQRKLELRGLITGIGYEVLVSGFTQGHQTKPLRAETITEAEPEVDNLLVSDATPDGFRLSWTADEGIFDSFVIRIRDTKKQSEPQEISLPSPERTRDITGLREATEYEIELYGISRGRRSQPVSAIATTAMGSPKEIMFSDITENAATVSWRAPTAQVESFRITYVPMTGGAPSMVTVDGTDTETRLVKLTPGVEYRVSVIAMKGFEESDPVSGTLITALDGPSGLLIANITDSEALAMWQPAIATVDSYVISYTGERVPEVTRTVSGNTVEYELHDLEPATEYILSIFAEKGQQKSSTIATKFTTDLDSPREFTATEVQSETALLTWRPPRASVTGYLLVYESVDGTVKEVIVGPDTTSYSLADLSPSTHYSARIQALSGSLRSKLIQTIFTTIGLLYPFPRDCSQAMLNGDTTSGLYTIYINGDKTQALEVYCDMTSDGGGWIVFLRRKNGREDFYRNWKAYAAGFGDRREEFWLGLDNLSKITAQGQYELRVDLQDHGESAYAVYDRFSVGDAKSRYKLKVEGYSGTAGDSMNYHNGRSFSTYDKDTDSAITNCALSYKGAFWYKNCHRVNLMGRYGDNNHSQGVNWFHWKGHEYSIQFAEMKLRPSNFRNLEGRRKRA

PDGF-AB: platelet derived growth factor AB heterodimer ligand
time of peak upregulation of tenascin-C mRNA ([1]; RT-PCR, cardiac endothelial cells cultured with exogenous PDGF ligand): 6 h | tenascin-C mRNA expression in cardiac endothelial cells after treatment ([1]; real-time PCR, cultured rat cardiac endothelial cells, n=2 per group): increased | tenascin-C expression in heart sections after treatment [2]: increases tenascin-C expression

collagen [reference compound]
cell attachment and morphology [3, 7]: attached well and were beginning to spread | cells attached to the substrate [3, 8]: 99% | cells that failed to attach to the substrate ([3]; substrate 10 μg/ml): 16.9% | increase of peak migration distance in response to PDGF compared to absence of growth factors [4]: 51.4% | increase of peak migration distance in response to VEGF compared to absence of growth factors [4]: 63.3%

tenascin-C: hexameric extracellular matrix glycoprotein, used as coating substrate for cardiac endothelial cells
cell attachment and morphology [3, 7]: rounded and poorly attached | cell attachment and morphology ([3]; 24 hours of culture, substrate 10 μg/ml): well attached and spread and formed a typical endothelial monolayer | cell attachment and morphology ([3]; 24 hr, substrate 100 μg/ml): formed multi-layered cell clusters | cells that fail to adhere [3, 8]: approximately 10% | cells that failed to attach to the substrate ([3]; substrate 10 μg/ml): 86.9% | increase of peak migration distance in response to PDGF compared to absence of growth factors [4]: 64.3% | increase of peak migration distance in response to VEGF compared to absence of growth factors [4]: 91.6%

ψR3Y32: phage clone from in vivo biopanning displaying a cyclically constrained peptide with core motif STISHN (SEQ ID NO:1), homologous to alpha-8 integrin (also: displayed on phage, cyclically constrained; listed as Homo sapiens)
levels of phage binding in young compared to old murine hearts [5]: 10 fold | binding of phage to vessels within the heart (pIII immunostaining) [6]: confirmed the binding of ψR3Y32 to vessels within the heart
